In patent US8940774B2, “Tris-Quaternary Ammonium Salts and Methods for Modulating Neuronal Nicotinic Acetylcholine Receptors” (University of Kentucky Research Foundation, priority 2005, dated 2015):

Experiments:
[1] = biological target: T1, Rat Striatal Nicotinic Receptors (Rattus norvegicus, UniProt P09483+P12390); assay: Inhibition of [3H]Nicotine (NIC) binding assay, rat striatal membranes; settings: % inhibition at 100 nM concentration of analog, 3 nM [3H]NIC
T1 construct: from tissue; host or cells: rat striatal membranes
T1 sequence (P09483 31-630): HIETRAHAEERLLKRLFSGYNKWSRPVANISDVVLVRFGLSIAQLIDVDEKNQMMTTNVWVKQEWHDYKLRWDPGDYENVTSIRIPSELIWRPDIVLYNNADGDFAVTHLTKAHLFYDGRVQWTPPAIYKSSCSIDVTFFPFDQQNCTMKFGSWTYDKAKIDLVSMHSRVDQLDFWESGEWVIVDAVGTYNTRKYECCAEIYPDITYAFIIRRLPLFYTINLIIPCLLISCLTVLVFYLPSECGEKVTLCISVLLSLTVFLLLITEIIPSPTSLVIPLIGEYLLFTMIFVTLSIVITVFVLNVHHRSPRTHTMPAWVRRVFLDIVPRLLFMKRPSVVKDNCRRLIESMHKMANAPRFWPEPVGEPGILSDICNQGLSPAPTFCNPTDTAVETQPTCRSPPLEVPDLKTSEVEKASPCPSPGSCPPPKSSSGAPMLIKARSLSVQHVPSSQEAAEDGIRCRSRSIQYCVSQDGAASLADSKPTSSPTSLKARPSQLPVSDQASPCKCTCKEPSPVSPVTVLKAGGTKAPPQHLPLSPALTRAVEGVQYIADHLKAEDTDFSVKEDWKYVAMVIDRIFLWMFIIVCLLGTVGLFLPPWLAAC
T1 sequence (P12390 25-500): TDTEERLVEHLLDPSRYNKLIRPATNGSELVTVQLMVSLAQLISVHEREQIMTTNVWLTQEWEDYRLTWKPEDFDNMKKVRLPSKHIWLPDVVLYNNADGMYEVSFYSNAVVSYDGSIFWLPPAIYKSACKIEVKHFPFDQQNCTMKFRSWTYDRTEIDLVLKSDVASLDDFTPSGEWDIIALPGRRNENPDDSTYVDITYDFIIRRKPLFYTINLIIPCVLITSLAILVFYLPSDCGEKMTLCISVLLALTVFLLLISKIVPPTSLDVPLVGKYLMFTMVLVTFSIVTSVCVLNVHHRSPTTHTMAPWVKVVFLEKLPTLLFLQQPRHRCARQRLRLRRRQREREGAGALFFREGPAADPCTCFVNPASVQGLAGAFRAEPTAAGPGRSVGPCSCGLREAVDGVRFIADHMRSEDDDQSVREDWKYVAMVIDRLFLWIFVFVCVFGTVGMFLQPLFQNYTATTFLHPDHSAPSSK
Description: Striata from two rats were dissected, pooled, and homogenized with a Tekmar polytron in 10 vol of ice-cold modified Krebs-HEPES buffer (20 mM HEPES, 118 mM NaCl, 4.8 mM, KCl, 2.5 mM CaCl2, 1.2 mM MgSO4, adjusted to pH 7.5). The homogenates were incubated at 37° C. for 5 minutes and centrifuged at 15,000 g for 20 minutes. The pellet was resuspended in 10 volumes of ice-cold MilliQ water, incubated for 5 minutes at 37° C., and centrifuged at 15,000 g for 20 minutes. The second pellet was then resuspended in 10 volumes of fresh ice-cold 10% Krebs-HEPES buffer, incubated at 37° C., and centrifuged at 15,000 g for 20 minutes. The latter sequence of resuspension, incubation and centrifugation was repeated. The pellet was frozen under fresh 10% Krebs-HEPES buffer and stored at −40° C. until assay. Upon assay, the pellet was resuspended in Krebs-HEPES buffer, incubated at 37° C. for 5 minutes, and centrifuged at 15,000 g for 20 minutes. The final pellet was resuspended in 3.6 mL ice-cold MilliQ water which provided for approximately 200 μg protein per 100 μL aliquot. Competition assays were performed in duplicate in a final volume of 200 μL Krebs-HEPES buffer containing […] Tris buffer (pH 7.5 at 4° C.). Reactions were initiated by addition of 100 μL of membrane suspension to 3 nM [^3H]NIC (50 μL) and one of at least nine concentrations of analog (50 μL). After a 90 minute incubation at 4° C., reactions were terminated by dilution of the samples with 3 mL of ice-cold Krebs-HEPES buffer followed immediately by filtration through Whatman GF/B glass fiber filters (presoaked in 0.5% polyethyleneimine) using a Brandel Cell Harvester. Filters were rinsed three times with 3 mL of ice-cold Krebs-HEPES buffer, transferred to scintillation vials, and 5 mL scintillation cocktail (Research Products international Corp., Mt. Prospect, Ill.) added. Nonspecific binding determined in triplicate was defined as binding in the presence of 10 μM NIC. Binding parameters were determined using the weighted, least squares non-linear regression. The tris-quaternary ammonium salts were evaluated for their ability to displace [^3H]NIC binding from rat striatal membranes.
(§1) Data are % inhibition at 100 nM concentration of analog for at least 1-3 independent experiments. Specific binding in the [^3H]NIC binding assay is calculated at the difference between the total binding of [^3H]NIC and nonspecific binding in the presence of 10 μM cold nicotine. Specific binding for the [^3H]MLA binding assay is calculated as the difference between the total binding of 2.5 nM [^3H]MLA to the receptors alone and its nonspecific binding in the presence of 1 μM cold MLA. Analog-induced inhibition of nicotine-evoked [^3H]DA release is calculated as a percent of that in the absence of analog.

[2] = biological target: T2, α7-type neuronal nicotinic acetylcholine receptors (Rattus norvegicus, UniProt Q05941); assay: Inhibition of [3H]Methyllycaconitine (MLA) binding assay, rat brain membranes; settings: % inhibition at 100 nM concentration of analog; rat brain membranes; 2.5 nM [3H]MLA; read-out: Inhibition of [3H]MLA binding
T2 construct: from tissue; host or cells: rat brain membranes (whole brain without cortex, striatum and cerebellum)
T2 sequence (Q05941 23-502): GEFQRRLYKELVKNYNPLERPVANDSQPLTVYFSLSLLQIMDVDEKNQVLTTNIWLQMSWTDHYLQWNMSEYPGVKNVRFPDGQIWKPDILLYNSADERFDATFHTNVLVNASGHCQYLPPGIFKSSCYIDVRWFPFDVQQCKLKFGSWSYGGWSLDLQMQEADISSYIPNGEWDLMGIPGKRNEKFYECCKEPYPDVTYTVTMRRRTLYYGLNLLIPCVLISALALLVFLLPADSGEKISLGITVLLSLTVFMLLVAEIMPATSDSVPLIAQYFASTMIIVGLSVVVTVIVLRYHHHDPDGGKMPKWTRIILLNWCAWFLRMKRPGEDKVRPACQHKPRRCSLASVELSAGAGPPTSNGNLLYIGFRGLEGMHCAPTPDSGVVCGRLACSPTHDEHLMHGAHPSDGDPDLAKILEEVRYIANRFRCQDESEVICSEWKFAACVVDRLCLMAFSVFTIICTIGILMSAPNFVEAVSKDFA
Description: Rat brain was dissected into the whole brain tissue without cortex, striatum and cerebellum and was frozen in liquid nitrogen and stored at −70° C. until use. The brain tissue was homogenized with a Tekmar Polytron (setting 40) in 20 volumes of ice-cold hypotonic buffer (2 mM HEPES, 14.4 mM NaCl, 0.15 mM KCl, 0.2 mM CaCl2 and 0.1 mM MgSO4, pH=7.5). The homogenate was incubated at 37° C. for 10 minutes and centrifuged at 25,000 g for 15 minutes at […] The pellet was washed 3 times more by resuspension in 20 volumes of the same buffer and centrifugation at the above parameters. The final pellet was stored at −20° C. under 4.6 mL of the incubation buffer and was suspended just before the incubation with radioligand.
The binding of [^3H]MLA to probe α7-type neuronal nicotinic acetylcholine receptors was measured using a modification of the method of Davies at al., “Characterisation of the binding of [^3H]methyllycaconitine (MLA): a radioligand for labelling α7-type neuronal nicotinic acetylcholine receptors,” Neuropharmacology, 38, 679-690 (1999). [^3H]MLA (25.4 Ci/mmol) was purchased from Tocris Cookson Ltd., Bristol, U.K. Binding was performed in duplicate, in a final volume of 250 μL of the incubation medium, containing 20 mM HEPES, 144 mM NaCl, 1.5 mM KCl, 2 mM CaCl2, 1 mM MgSO4 and 0.05% BSA, pH=7.5. Reaction was initiated by the addition of 100 μL of membrane suspension to the samples containing a desired concentration of test compounds and […] [^3H]MLA (final concentration) and incubated for 2 hours it room temperature. Total binding was measured in the absence of unlabelled ligand, and nonspecific binding was determined by the presence of 1 μM unlabelled MLA. The binding reaction was terminated by dilution of samples with 3 mL of ice-cold incubation buffer followed by immediate filtration through glass fiber filters (S&S, grade #32, presoaked in 0.5% polyethylenimine) using a Brandel harvester system. Filters were rinsed three times with 3 mL of ice-cold buffer, transferred to scintillation vials and 4 mL of scintillation cocktail was added. Protein was measured using the Bradford dye-binding procedure with bovine serum albumin as the standard.
The tris-quaternary ammonium salts were evaluated for their ability to displace [^3H]MLA binding from rat brain membranes.
as §1

[3] = tested on: NIC-evoked [3H]DA release from rat striatal slices; assay: Nicotine-evoked [3H]dopamine release assay, superfused rat striatal slices; assay type: cell-based; settings: 100 nM analog superfused 60 minutes prior to NIC (10 μM), percent of that in the absence of analog
Description: Rat striatal slices (500 μm thickness, 6-8 mg wet weight) were incubated for 30 minutes in Krebs buffer (118 mM NaCl, 4.7 mM KCl, 1.2 mM MgCl2, 1.0 mM NaH2PO4, 1.3 mM CaCl2, 11.1 mM glucose, 25 mM NaHCO3, 0.11 mM L-ascorbic acid and 0.004 mM disodium EDTA; pH 7.4, and saturated with 95% O2/5% CO2) in a metabolic shaker at 34° C. Slices were rinsed with 15 mL of fresh buffer and incubated for an additional 30 minutes in fresh buffer containing 0.1 μM [^3H]dopamine (DA; 6 slices/3 mL). Subsequently, slices were rinsed with 15 mL of fresh buffer and transferred to a glass superfusion chamber. Slices were superfused (1.0 mL/min) for 60 minutes with Krebs buffer containing nomifensine (10 μM) and pargyline (10 μM) and maintained at 34° C., pH 7.4 with continual aeration (95% O2/5% CO2). Two five minute samples (5 mL each) were collected to determine basal outflow of [^3H]DA. Analogs were added to the superfusion buffer after the collection of the second sample and remained in the buffer until 12 consecutive five minute samples were collected. Subsequently, S-(−)-nicotine (10 μM) was added to the buffer and an additional 12 consecutive five minute samples were collected. At the end of the experiment, each slice was solubilized and the [^3H] content of the tissue determined.
Radioactivity in the superfusate and tissue samples were determined by liquid scintillation spectroscopy. Fractional release for tritium collected in each sample was divided by the total tritium present at the time of sample collection and was expressed as a percentage of total tritium. Basal [^3H] outflow was calculated from the average of the tritium collected in the two five-minute samples just before addition of the analog. The sum of the increase in collected tritium resulting from either exposure to the test compound or exposure to S-(−)-nicotine in the absence cod presence of the test compound equaled total [^3H] overflow. [^3H] Overflow was calculated by subtracting the [^3H] outflow during an equivalent period of prestimulation from the values in samples collected during and after drug exposure. Inasmuch as the radiolabelled compounds were not separated and identified, the tritium in the superfusate is referred to as either [^3H] outflow or [^3H] overflow, rather than [^3H]DA. [^3H] Overflow primarily represents [^3H]DA in the presence of nomifesine and pargyline in the superfusion buffer. […]
Analogs were also evaluated for their ability to inhibit NIC evoked [^3H]DA release. In these experiments, the striatal slices were superfused for 60 minutes with 100 nM concentration of the analogs prior to NIC (10 μM) exposure. Antagonist activity was evaluated by comparing the NIC-evoked [^3H] overflow in the absence and presence of the analogs. The relative order of potency of the analogs for inhibition of NIC-evoked [^3H]DA release from rat striatal slices is illustrated in Table 1.
as §1

## Cc1cc(C)c[n+](CCCCCc2cc(CCCCC[n+]3cc(C)cc(C)c3)cc(CCCCC[n+]3cc(C)cc(C)c3)c2)c1 [GZ557A, 1,3,5-tris-[5-(3,5-lutidinium)-pentyl]-benzene tribromide]
[1]
  inhibition at 0.1 µM: 11 ± 2.9%
[2]
  inhibition at 0.1 µM: 6.5 ± 3.6%
[3]
  inhibition at 0.1 µM: 39 ± 18%

## Cc1cc[n+](CCCCCc2cc(CCCCC[n+]3ccc(C)c(C)c3)cc(CCCCC[n+]3ccc(C)c(C)c3)c2)cc1C [GZ557B, 1,3,5-tris-[5-(3,4-lutidinium)-pentyl]-benzene tribromide]
[1]
  inhibition at 0.1 µM: 9.3 ± 4.1%
[2]
  inhibition at 0.1 µM: 0.2 ± 0.2%
[3]
  inhibition at 0.1 µM: 50 ± 21%

## c1ccc(-c2ccc[n+](CCCCCc3cc(CCCCC[n+]4cccc(-c5ccccc5)c4)cc(CCCCC[n+]4cccc(-c5ccccc5)c4)c3)c2)cc1 [GZ558A, 1,3,5-tris-[5-(3-phenyl-pyridinium)-pentyl]-benzene tribromide]
[1]
  inhibition at 0.1 µM: 14 ± 5.8%
[2]
  inhibition at 0.1 µM: 19 ± 1.7%
[3]
  inhibition at 0.1 µM: 6 ± 5%

## CCCCc1ccc[n+](CCCCCc2cc(CCCCC[n+]3cccc(CCCC)c3)cc(CCCCC[n+]3cccc(CCCC)c3)c2)c1 [GZ558B, 1,3,5-tris-[5-(3-butyl-pyridinium)-pentyl]-benzene tribromide]
[1]
  inhibition at 0.1 µM: 6.2 ± 4%
[2]
  inhibition at 0.1 µM: 4.4 ± 3.3%
[3]
  inhibition at 0.1 µM: 68 ± 14%
